According to ChEMBL document CHEMBL1201862, “PubChem BioAssay data set” (2004):
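Method: 48-hour compound exposure of cells in 96-well plates, five concentrations, linear interpolation of endpoints. The concentration for 50% growth inhibition is given as GI50.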 Activity calls are given as the source filed them. Rule as the data show it: active = GI50 up to about 1.1 µM and inactive = higher.

Columns and labels:
Assay in all cases: NCI-60 cell line screen, 48 h
CAKI-1 = tested on: CAKI-1
KM12 = tested on: KM12
Malme-3M = tested on: Malme-3M
NCI/ADR-RES = tested on: NCI/ADR-RES
CCRF-CEM = tested on: CCRF-CEM
HOP-62 = tested on: HOP-62
RXF 393 = tested on: RXF 393
UACC-62 = tested on: UACC-62
SK-OV-3 = tested on: SK-OV-3
OVCAR-3 = tested on: OVCAR-3
IGROV-1 = tested on: IGROV-1
RPMI-8226 = tested on: RPMI-8226
EKVX = tested on: EKVX
K562 = tested on: K562
NCI-H23 = tested on: NCI-H23
SK-MEL-5 = tested on: SK-MEL-5
A549 = tested on: A549
SNB-19 = tested on: SNB-19
SR = tested on: SR
SF-539 = tested on: SF-539

| Structure (SMILES) | GI50 (CAKI-1) | GI50 (KM12) | GI50 (Malme-3M) | GI50 (NCI/ADR-RES) | GI50 (CCRF-CEM) | GI50 (HOP-62) | GI50 (RXF 393) | GI50 (UACC-62) | GI50 (SK-OV-3) | GI50 (OVCAR-3) | GI50 (IGROV-1) | GI50 (RPMI-8226) | GI50 (EKVX) | GI50 (K562) | GI50 (NCI-H23) | GI50 (SK-MEL-5) | GI50 (A549) | GI50 (SNB-19) | GI50 (SR) | GI50 (SF-539) |
| --- | --- | --- | --- | --- | --- | --- | --- | --- | --- | --- | --- | --- | --- | --- | --- | --- | --- | --- | --- | --- |
| COC(=O)[C@]12CC3C=CC1N(C3)C(CBr)c1c2n(S(=O)(=O)c2ccccc2)c2ccccc12 (some centres undefined) | 74.6 µM (inactive) | > 100 µM (inactive) | 72.9 µM (inactive) | > 100 µM (inactive) | 47.6 µM (inactive) | 92.3 µM (inactive) | 33.2 µM (inactive) | 57.3 µM (inactive) | > 100 µM (inactive) | 97.7 µM (inactive) | 72.9 µM (inactive) | 0.292 µM (active) | 80 µM (inactive) | 0.118 µM (active) | 51.5 µM (inactive) | > 100 µM (inactive) | 50.5 µM (inactive) | – | – | – |
| CC1(C)CCc2cc3c(cc2O1)OCCC3=O | 92.7 µM (inactive) | > 100 µM (inactive) | > 100 µM (inactive) | – | > 100 µM (inactive) | > 100 µM (inactive) | > 100 µM (inactive) | > 100 µM (inactive) | > 100 µM (inactive) | > 100 µM (inactive) | > 100 µM (inactive) | 96.2 µM (inactive) | > 100 µM (inactive) | > 100 µM (inactive) | > 100 µM (inactive) | > 100 µM (inactive) | > 100 µM (inactive) | > 100 µM (inactive) | 58.1 µM (inactive) | > 100 µM (inactive) |
| OCC1OC(n2nc(-c3ccccc3)nc2-c2cnccn2)C(O)C(O)C1O (centres undefined) | – | > 100 µM (inactive) | – | > 100 µM (inactive) | > 100 µM (inactive) | > 100 µM (inactive) | – | > 100 µM (inactive) | > 100 µM (inactive) | > 100 µM (inactive) | > 100 µM (inactive) | > 100 µM (inactive) | – | > 100 µM (inactive) | > 100 µM (inactive) | > 100 µM (inactive) | > 100 µM (inactive) | > 100 µM (inactive) | – | > 100 µM (inactive) |
| CSc1nc(-c2ccc(C)cc2)c(C#N)c(=O)[nH]1 | > 100 µM (inactive) | > 100 µM (inactive) | – | > 100 µM (inactive) | > 100 µM (inactive) | > 100 µM (inactive) | > 100 µM (inactive) | > 100 µM (inactive) | > 100 µM (inactive) | > 100 µM (inactive) | > 100 µM (inactive) | > 100 µM (inactive) | > 100 µM (inactive) | > 100 µM (inactive) | > 100 µM (inactive) | > 100 µM (inactive) | > 100 µM (inactive) | > 100 µM (inactive) | – | > 100 µM (inactive) |
| O=S(=O)(O)c1cc(S(=O)(=O)O)c2c(/N=N/c3ccccc3)c(O)ccc2c1 | > 100 µM (inactive) | > 100 µM (inactive) | – | > 100 µM (inactive) | > 100 µM (inactive) | > 100 µM (inactive) | > 100 µM (inactive) | > 100 µM (inactive) | > 100 µM (inactive) | > 100 µM (inactive) | > 100 µM (inactive) | > 100 µM (inactive) | – | > 100 µM (inactive) | > 100 µM (inactive) | > 100 µM (inactive) | > 100 µM (inactive) | > 100 µM (inactive) | – | – |
| C=C1C[C@]23C[C@@]1(O)CC[C@H]2[C@@]12C=C[C@H](O)[C@@](C)(C(=O)O1)[C@H]2[C@@H]3C(=O)O [GIBBERELLIN A3] | > 100 µM (inactive) | > 100 µM (inactive) | > 100 µM (inactive) | – | > 100 µM (inactive) | > 100 µM (inactive) | > 100 µM (inactive) | > 100 µM (inactive) | > 100 µM (inactive) | > 100 µM (inactive) | > 100 µM (inactive) | > 100 µM (inactive) | > 100 µM (inactive) | > 100 µM (inactive) | > 100 µM (inactive) | > 100 µM (inactive) | > 100 µM (inactive) | > 100 µM (inactive) | > 100 µM (inactive) | > 100 µM (inactive) |
